“Also recorded” adds a separate entry of the source.
Experiments:
Type in all cases: in vivo
[1] = SPME/GC-MS of PMD generated by hydrolysis of PMDL placed on the skin; details: 100 μg/cm^2 PMDL on skin, sampling 0 to 300 min, FIG. 3a
Method: Solid Phase Microextraction (SPME) is a sample preparation technique which has been used for trapping volatiles. In the subject invention, SPME was used to extract and concentrate PMD vapour (by-product of PMDL hydrolysis) in the headspace. The extracted analytes were then analyzed by Gas Chromatography-Mass Spectroscopy (GC-MS). The SPME fiber used here was from Supelco, a 2.0 cm long, StableFlex fiber (23-gauge needle), 50/30 divinylenzene/carboxene on polydimethylsiloxane. Agilent 6890 Gas Chromatography equipped with Agilent 5973 Mass Selective Detector and Chemstation, G1701CA software were used for analyzing and identifying PMD. GC was equipped with a 0.25 […] HP-5 capillary column with 0.25 micrometer of cross-linked 5% Phenyl Methyl Siloxane. The GC oven was programmed to increase its temperature at 2 min from the initial temperature of 60° C. to 300° C. at 6° C./min. The injector temperature and the head pressure were 250° C. and 8.6 psi, respectively. The flow rate of the carrier gas (helium) was 1 mL/min The total flow rate was set at 25 mL/min Purge was off for 0.5 min, i.e. from a split mode into a splitless mode after the program was started. Agilent 5973 Mass Selective Detector with an ion source by an electron impact (El) data system was used for mass spectrometric identification. […]

[2] = Ethanol extraction of PMDL-treated skin followed by APCI-MS for linoleic acid; details: FIGS. 6 and 7
Method: Another set of experiments was conducted to confirm the results obtained earlier from SPME-GC for PMD & PMDL and also to confirm hydrolysis of PMDL into linoleic acid and PMD on the skin by ethanol extraction of the skin followed by GC-MS and APCI-MS analysis of the collected extracts. In this set, individual stock solutions of PMD and PMDL were prepared by placing 0.0978 g PMD and 0.1095 g in 5 mL of ethanol, respectively. Then five areas of skin, about 7 cm^2 on each arm, were selected. One of the five spots on each arm remained untreated as control and marked as a blank. The remaining four areas on the right arm were dosed with 32 μL PMDL and the remaining four areas on the left arm were dosed with 36 μL of PMD. Untreated area 1, and the treated area on each arm marked as 2, 3, 4, and 5, were then extracted with 4 mL of ethanol for a period of 3 min at 0, 15, 60 and 150 min intervals, respectively. Collected extracts were then analyzed by GC-MS for their PMD and PMDL and by APCI-MS for their linoleic acid contents (FIGS. 4, 5, 6 and 7). […]
APCI-MS was used to analyze linoleic acid in ethanol skin extracts. […] Samples from the last set of experiments, as described in the […] were analyzed for their linoleic acid level using this technique. Each extracted sample was analyzed in triplicate.

[3] = Ethanol extraction of PMD- and PMDL-treated skin followed by GC-MS
Method: PMDL standard and ethanol skin extracts were also analyzed by GC-MS. The injection mode for PMDL was a split mode at 10:1 split ratio. The rest of conditions were the same as the ones used for PMD analysis by GC-MS as are listed above. The SPME apparently is a tube (e.g., dome or other like structure) strapped to measured area (e.g., arm) with an opening (e.g., at top) to insert analytical extractor which is essentially a needle used to trap/absorb volatiles released in the apparatus.
In this set, individual stock solutions of PMD and PMDL were prepared by placing 0.0978 g PMD and 0.1095 g in 5 mL of ethanol, respectively. Then five areas of skin, about 7 cm^2 on each arm, were selected. One of the five spots on each arm remained untreated as control and marked as a blank. The remaining four areas on the right arm were dosed with 32 μL PMDL and the remaining four areas on the left arm were dosed with 36 μL of PMD. Untreated area 1, and the treated area on each arm marked as 2, 3, 4, and 5, were then extracted with 4 mL of ethanol for a period of 3 min at 0, 15, 60 and 150 min intervals, respectively. Collected extracts were then analyzed by GC-MS for their PMD and PMDL and by APCI-MS for their linoleic acid contents (FIGS. 4, 5, 6 and 7). FIG. 4 is plot of PMD, FIG. 5 is plot of PMDL; and FIGS. 6 and 7 are plots for linoleic acid.

[4] = SPME/GC-MS of headspace above forearm skin dosed with PMD (evaporation of PMD)
Method: Solid Phase Microextraction (SPME) is a sample preparation technique which has been used for trapping volatiles. In the subject invention, SPME was used to extract and concentrate PMD vapour (by-product of PMDL hydrolysis) in the headspace. The extracted analytes were then analyzed by Gas Chromatography-Mass Spectroscopy (GC-MS). The SPME fiber used here was from Supelco, a 2.0 cm long, StableFlex fiber (23-gauge needle), 50/30 divinylenzene/carboxene on polydimethylsiloxane. Agilent 6890 Gas Chromatography equipped with Agilent 5973 Mass Selective Detector and Chemstation, G1701CA software were used for analyzing and identifying PMD. GC was equipped with a 0.25 […] HP-5 capillary column with 0.25 micrometer of cross-linked 5% Phenyl Methyl Siloxane. The GC oven was programmed to increase its temperature at 2 min from the initial temperature of 60° C. to 300° C. at 6° C./min. The injector temperature and the head pressure were 250° C. and 8.6 psi, respectively. The flow rate of the carrier gas (helium) was 1 mL/min The total flow rate was set at 25 mL/min Purge was off for 0.5 min, i.e. from a split mode into a splitless mode after the program was started. Agilent 5973 Mass Selective Detector with an ion source by an electron impact (El) data system was used for mass spectrometric identification. The detector was used in a scan mode to scan mass ranging from a Low Mass of 40 to a High Mass of 550. Solvent delay time was 3.5 min. Total sample run time was 60 min.
To determine the extent of evaporation of PMD from the skin matrix over a period of time (correlating to amount of PMD produced by hydrolysis from PMD-L), a number of experiments were carried out. In these experiments, SPME fiber was inserted into a headspace of a glass semi-ball chamber fastened on forearm by an elastic band. […]
For a first set of SPME experiments, a PMD solution at concentration of 21800 μg/mL was prepared by placing 0.218 g of PMD crystals in 10 mL of absolute ethanol. […] The SPME glass chamber and fibers were then removed and the SPME fiber were analyzed by GC-MS for measurement of PMD. […]

Compound	PMD signal generated from hydrolysis of PMDL on the skin over time (SPME/GC-MS) [1]	PMD signal generated from hydrolysis of PMDL on the skin over time (SPME/GC-MS) ([1]; listed as PMD-L)	linoleic acid level on PMDL treated skin over time ([2]; APCI-MS of ethanol extracts at 0, 15, 60 and 150 min)	level of linoleic acid in PMDL treated skin compared to untreated skin (blank) ([2]; APCI-MS of ethanol extracts)	levels of PMDL on PMDL treated skin (GC-MS peak area of ethanol extracts) ([3]; leave on time 0 to 150 min, FIG. 5)	level of PMD on PMDL treated skin ([3]; over a 150 minute period)	time after which active is no longer present ([3]; PMD delivered in non-ester form, FIG. 4) [h]	PMD levels on PMD treated skin (GC-MS peak area of ethanol extracts) ([3]; leave on time 0 to 150 minutes, FIG. 4)	levels of PMD on the skin over leave on time (SPME/GC-MS) ([4]; 40 μg/cm^2 PMD applied neat, 0 to 300 minutes, FIG. 3b)	time over which PMD signal was followed and detected ([4]; 40 μg/cm^2 PMD on forearm skin, SPME extraction time 30 min, FIG. 3b)	time after which PMD signal could not be detected ([4]; 40 μg/cm^2 PMD on forearm skin, SPME sampling time 5 min) [h]
3,8-p-Menthanedilinoleate [PMDL]	presence of high levels of PMD released from the skin at the early stage and then through a decrease in the PMD levels over period of time	initial sharp increase in the concentration of PMD	an increase in linoleic acid level over the 15 to 60 min period followed by a decrease at 150 min; also recorded: increase in linoleic on treated skin in first hour followed by a decrease	substantially higher in the treated skin samples compared to the untreated skin	a trend of decrease in the levels of PMDL on the skin	simultaneous increase in the level of PMD on the skin	–	–	–	–	–
CC1CCC(C(C)(C)O)C(O)C1 (centres unmarked) [PMD, 3,8-p-menthanediol, reference compound]	–	–	–	–	–	–	2.5	decreased as the leave on time increased from 0 to 150 minutes; also recorded: decrease of PMD	decreased as the leave on time proceeded from 0 to 300 minutes	up to 5 hours	2
